This note sets out measurements from patent publication US20130071535A1, “FOOD AND FLAVORANT COMPOSITIONS COMPRISING RENEWABLY-BASED, BIODEGRADABLE 1,3-PROPANEDIOL” (DuPont Tate & Lyle Bio Products Company, LLC, priority 2006, published 2013).

Each structure is given as a SMILES string.

Series [1] can be described thus: Viscosity of formulation. The class given is physicochemical. The settings on record: cosmetic emulsion of Example 1 with other glycol instead of Bio-PDO.
Series [2] has as its system human skin. Description: Second human skin patch test. The class given is in vivo. From the text:
(§1) Based on these studies PDO is not expected to be a skin irritant or sensitizer in humans.

The subject of series [3] is human skin. As to the kind of experiment: Human skin patch test (first). The class given is in vivo. The note with it: approximately 100 subjects; 5, 25, and 50% PDO.
Source text: as §1

For `CC(O)CCO` (stereo not drawn) [1,3-butylene glycol], the “viscosity of the cosmetic emulsion with the comparison glycol” value in series [1] stood at 6000 cps.
On the same count and under the same terms, under `CC(CO)CO` [2-methyl-1,3-propanediol] stands 9600 cps.
Consider `OCCCO` [Bio-PDO, 1,3-propanediol], for which the “clinically significant dermal irritation or sensitization reactions” value in series [2] (25, 50, and 75% PDO at pH 7, or 75% PDO at pH 4 and 9) is “did not produce any clinically significant dermal irritation or sensitization reactions”. Further, the “skin reactions indicative of irritation or sensitization” value in series [3] is reported as “did not cause any skin reactions indicative of irritation or sensitization”.
Take `CC(O)CO` (stereo not drawn) [propylene glycol]: in series [2] (25, 50, and 75% (pH 7)), the “patch test irritation and cumulative irritation for human skin” value was “patch test irritants and cumulative irritants”. For the same molecule, in series [1], the “viscosity of the cosmetic emulsion with the comparison glycol” value was 12600 cps.
